Measured values reported in article PMC5699221 (Biochemistry, 2017).

Tests used:
PaNAS = PaNAS (Pseudomonas aeruginosa, UniProt Q9HUX4); assay: biochemical
[1] = tested on: N[C@H](Cc1c[nH]cn1)C(=O)O; assay: purified protein; conditions: co-substrate SAM, coupled with SaODH, NADPH, pyruvate, 50 mM Tris pH 8
PaODH = PaODH (Pseudomonas aeruginosa, UniProt Q9HUX5); assay: NADPH fluorescence, titrated with enzyme; format: binding
PaODH, sequence (Q9HUX5 whole entry): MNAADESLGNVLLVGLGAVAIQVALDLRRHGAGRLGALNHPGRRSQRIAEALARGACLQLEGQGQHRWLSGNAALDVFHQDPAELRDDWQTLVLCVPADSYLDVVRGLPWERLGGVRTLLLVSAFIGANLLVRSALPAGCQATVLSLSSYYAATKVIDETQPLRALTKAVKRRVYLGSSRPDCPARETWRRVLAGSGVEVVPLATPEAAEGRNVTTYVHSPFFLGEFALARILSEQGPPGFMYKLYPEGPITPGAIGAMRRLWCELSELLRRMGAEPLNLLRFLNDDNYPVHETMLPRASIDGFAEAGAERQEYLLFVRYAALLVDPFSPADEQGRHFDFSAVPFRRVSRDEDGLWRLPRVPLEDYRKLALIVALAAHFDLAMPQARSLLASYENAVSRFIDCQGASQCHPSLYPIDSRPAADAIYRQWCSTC

PaNAS, sequence (Q9HUX4 whole entry): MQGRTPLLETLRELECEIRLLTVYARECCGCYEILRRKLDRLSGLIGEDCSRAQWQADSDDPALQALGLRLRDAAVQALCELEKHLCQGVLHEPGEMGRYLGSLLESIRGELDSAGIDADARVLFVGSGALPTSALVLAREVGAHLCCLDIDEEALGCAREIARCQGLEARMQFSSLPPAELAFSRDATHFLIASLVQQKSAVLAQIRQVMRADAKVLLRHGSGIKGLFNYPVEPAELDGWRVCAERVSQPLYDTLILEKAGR

Q: Which Kd (PaNAS) does the source give for C[S+](CC[C@H](N)C(=O)O)C[C@H]1O[C@@H](n2cnc3c(N)ncnc32)[C@H](O)[C@@H]1O (stereo partly shown) [SAM] here?
A: 1.2 ± 0.3 µM

Q: How did the Km [1] turn out when “SaNAS (Staphylococcus aureus subsp. aureus Mu50)” was run?
A: 13.0 ± 0.7 µM

Q: And the kcat [1]?
A: 0.0298 ± 0.00033 s⁻¹

Q: How did the Kd (PaODH) turn out when NC(=O)C1=CN([C@@H]2O[C@H](COP(=O)(O)OP(=O)(O)OC[C@H]3O[C@@H](n4cnc5c(N)ncnc54)[C@H](OP(=O)(O)O)[C@@H]3O)[C@@H](O)[C@H]2O)C=CC1 [NADPH] was run?
A: 11 ± 1 µM
